Experimental findings from patent publication US8232406B2, “c-MET protein kinase inhibitors” (Vertex Pharmaceuticals Incorporated, priority 2006, dated 2012) are described below.

As usually defined, the Ki is a measure of affinity in units of concentration, obtained from inhibition or displacement.

In this test the target is c-MET (Homo sapiens, UniProt P08581). Nature of the test: Ki determination for the inhibition of c-MET (standard radiometric 33P-ATP kinase assay, polyE4Y substrate). It counts as biochemical. The following applies: 1.0 nM c-Met, 35 μM ATP, 0.5 mg/mL polyE4Y, 20 min; competitive tight-binding fit. The method, then:
Ki Determination for the Inhibition of c-MET
Compounds of the invention were screened for their ability to inhibit c-MET kinase activity using a standard radiometric assay. Briefly, in this kinase assay the transfer of the terminal ^33P-phosphate in ^33P-ATP to substrate polyE4Y is interrogated. The assay was carried out in 96-well plates to a final volume of 100 μL per well containing 1.0 nM c-Met, 100 mM HEPES (pH 7.5), 10 mM MgCl2, 25 mM NaCl, 0.01% BSA, 1 mM DTT, 0.5 mg/mL polyE4Y, and 35 μM ATP. Accordingly, compounds of the invention were dissolved in DMSO to make 10 mM initial stock solutions. Serial dilutions in DMSO were then made to obtain the final solutions for the assay. A 1.5 μL aliquot of DMSO or inhibitor in DMSO was added to each well. The reaction was initiated by the addition of ^33P-ATP and polyE4Y (obtained from Sigma). After 20 min, the reaction was quenched with 50 μL of 30% trichloroacetic acid (TCA) containing 4 mM ATP. The reaction mixture was transferred to the 0.66 mm GF filter plates (Corning) and washed three times with 5% TCA. Following the addition of 50 μL of Ultimate Gold™ high efficiency scintillant (Packard Bioscience), the samples were counted in a Packard TopCount NXT Microplate Scintillation and Luminescence Counter (Packard BioScience). The Ki values were calculated using Microsoft Excel Solver macros to fit the data to the kinetic model for competitive tight-binding inhibition.

Sequence of c-MET (P08581 25-1390): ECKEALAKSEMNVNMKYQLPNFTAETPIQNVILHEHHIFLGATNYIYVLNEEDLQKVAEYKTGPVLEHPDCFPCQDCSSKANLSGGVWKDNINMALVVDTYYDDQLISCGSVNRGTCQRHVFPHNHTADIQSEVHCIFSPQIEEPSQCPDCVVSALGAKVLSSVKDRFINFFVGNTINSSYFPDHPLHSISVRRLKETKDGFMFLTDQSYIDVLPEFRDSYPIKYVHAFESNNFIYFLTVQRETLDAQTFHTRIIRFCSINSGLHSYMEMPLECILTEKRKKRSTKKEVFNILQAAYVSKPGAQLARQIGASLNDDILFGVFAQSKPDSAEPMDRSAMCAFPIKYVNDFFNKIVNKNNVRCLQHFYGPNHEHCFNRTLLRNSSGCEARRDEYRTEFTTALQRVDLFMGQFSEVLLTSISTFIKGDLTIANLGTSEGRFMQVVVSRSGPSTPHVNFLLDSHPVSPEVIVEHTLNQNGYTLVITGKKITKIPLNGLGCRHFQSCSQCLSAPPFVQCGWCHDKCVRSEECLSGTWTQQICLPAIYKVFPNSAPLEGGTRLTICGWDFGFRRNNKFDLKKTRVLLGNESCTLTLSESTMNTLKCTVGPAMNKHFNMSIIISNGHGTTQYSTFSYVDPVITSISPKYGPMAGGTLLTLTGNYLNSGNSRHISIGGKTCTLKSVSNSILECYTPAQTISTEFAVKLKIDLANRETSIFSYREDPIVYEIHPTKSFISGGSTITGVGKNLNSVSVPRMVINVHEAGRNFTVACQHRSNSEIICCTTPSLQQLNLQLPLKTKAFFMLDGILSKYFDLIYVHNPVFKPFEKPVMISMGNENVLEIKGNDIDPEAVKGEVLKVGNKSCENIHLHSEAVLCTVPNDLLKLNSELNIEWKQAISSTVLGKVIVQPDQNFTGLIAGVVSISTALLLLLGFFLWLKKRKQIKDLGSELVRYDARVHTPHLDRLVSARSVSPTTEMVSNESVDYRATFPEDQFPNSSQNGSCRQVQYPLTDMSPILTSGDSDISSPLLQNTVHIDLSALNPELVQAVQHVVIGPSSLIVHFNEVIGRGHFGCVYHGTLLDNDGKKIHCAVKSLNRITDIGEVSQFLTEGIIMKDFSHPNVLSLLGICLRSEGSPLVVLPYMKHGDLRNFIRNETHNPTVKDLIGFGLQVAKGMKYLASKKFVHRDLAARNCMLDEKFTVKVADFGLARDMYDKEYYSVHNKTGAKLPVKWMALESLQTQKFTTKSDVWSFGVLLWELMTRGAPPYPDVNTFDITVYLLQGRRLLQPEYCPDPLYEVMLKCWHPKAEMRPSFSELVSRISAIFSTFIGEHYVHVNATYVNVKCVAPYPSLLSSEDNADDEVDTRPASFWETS

Turning to `CCNC(=O)Nc1ccc(-c2cnc(N)c(-c3nnnn3-c3cccc(F)c3F)c2)cc1` [I-A-281], the inhibition constant Ki is ≤ 0.1 µM.

Take `Cc1nc(-c2cc(-c3cccnc3)cnc2N)c(-c2cccc(Cl)c2Cl)o1` [I-C-6]: the inhibition constant (Ki) is ≤ 0.1 µM.

Regarding `COc1cc(O)ccc1-c1cnc(N)c(-c2nnnn2-c2cccc(F)c2F)c1` [I-A-220], the Ki was ≤ 0.1 µM.

For the compound `COc1ccncc1-c1cnc(N)c(-c2nncn2-c2cccc(F)c2F)c1` [I-A-110], the Ki was 0.1 to 1 µM.

With `Nc1ncc(-c2cnn([C@H]3CCNC3)c2)cc1-c1nnnn1-c1cccc(Cl)c1Cl` [I-A-413], the inhibitory constant (Ki) is ≤ 0.1 µM.

`Nc1ncc(-c2ccc(N3CCNCC3)cc2)cc1-c1nc2cc(F)ccc2n1-c1cccc(Cl)c1F` [I-D-20] yielded an inhibition constant (Ki) of 0.1 to 1 µM.

Turning to `CN(C)Cc1ccc(-c2cnc(N)c(-c3nnnn3-c3cc(Cl)ccc3F)c2)cc1` [I-A-593], the Ki fell in the range of 0.1 to 1 µM.

`CC(=O)Nc1ccc(-c2cnc(N)c(-c3nnnn3-c3c(F)cccc3Cl)c2)cc1` [I-A-639] returned an inhibition constant Ki of 0.1 to 1 µM.

With `CC(C)(C)C(=O)Nc1ccc(-c2cnc(N)c(-c3nnnn3-c3cccc(F)c3F)c2)cc1` [I-A-194], the Ki fell in the range of 0.1 to 1 µM.

The compound `Nc1ncc(-c2cccnc2)cc1-c1nnnn1-c1cccc(Cl)c1F` [I-A-557] showed a Ki of 0.1 to 1 µM.

`Nc1ncc(-c2ccc(O)c(F)c2)cc1-c1nnnn1-c1cccc(F)c1F` [I-A-295]: the Ki is ≤ 0.1 µM.

In the case of `Nc1ncc(-c2cccc(C(=O)N3CCOCC3)c2)cc1-c1nnnn1-c1cccc(F)c1F` [I-A-320], the Ki was 0.1 to 1 µM.

Take `Nc1ncc(-c2ccc3nccnc3c2)cc1-c1nnnn1-c1cccc(F)c1F` [I-A-304]: the inhibition constant Ki fell in the range of 0.1 to 1 µM.

In the case of `Nc1ncc(-c2ccc(CN3CCN(CCO)CC3)cc2)cc1-c1nnnn1-c1cccc(Cl)c1Cl` [I-A-104], the inhibition constant Ki is ≤ 0.1 µM.

On to `Nc1ncc(-c2cccs2)cc1-c1nnnn1-c1cccc(F)c1F` [I-A-487], for which the inhibitory constant (Ki) is ≤ 0.1 µM.

Consider `CCNC(=O)Nc1nc2cc(F)c(-c3cnc(N)c(-c4nncn4-c4cccc(F)c4F)n3)cc2[nH]1` [I-A-57], for which the Ki is ≤ 0.1 µM.

As for `CC(=O)Nc1ccc(-c2cnc(N)c(-c3nnnn3-c3cccc(Cl)c3F)c2)cc1` [I-A-584], the Ki was ≤ 0.1 µM.

`CN1CCN(c2ccc(-c3cnc(N)c(-c4nccn4-c4cccc(Cl)c4Cl)c3)cc2)CC1` [I-A-402]: the Ki was in the range of 0.1 to 1 µM.

`Cc1nnc(-c2cc(-c3ccc(CN(C)C)cc3)cnc2N)n1-c1cccc(F)c1Cl` [I-A-389]: the inhibition constant (Ki) lay within 0.1 to 1 µM.

In the case of `Nc1ncc(-c2cnn(C3CCN(C4CCC4)CC3)c2)cc1-c1nnnn1-c1cccc(F)c1F` [I-A-451], the Ki is ≤ 0.1 µM.

In the case of `COc1ccc(-c2cnc(N)c(-c3nnnn3-c3cccc(F)c3F)c2)cc1` [I-A-222], the inhibition constant (Ki) was ≤ 0.1 µM.

As to `Nc1ncc(-c2cccc(NC(=O)NC3CCCC3)c2)cc1-c1nnnn1-c1cccc(F)c1F` [I-A-329], the inhibitory constant (Ki) is ≤ 0.1 µM.

For `Cc1ccc(Cl)cc1-n1nnnc1-c1cc(-c2ccc(CN3CCCC3)cc2)cnc1N` [I-A-600], the Ki was in the range of 0.1 to 1 µM.

Compound `Nc1ncc(-c2ccnc(F)c2)cc1-c1nnnn1-c1cccc(F)c1F` [I-A-319] returned a Ki of 0.1 to 1 µM.

On to `NCc1ccc(-c2cnc(N)c(-c3nnnn3-c3cccc(F)c3F)c2)cc1` [I-A-202], for which the Ki is ≤ 0.1 µM.

On to `COc1ccc(-c2cnc(N)c(-c3nncn3-c3cccc(Cl)c3Cl)c2)cc1OC` [I-A-77], for which the Ki was in the range of 0.1 to 1 µM.

Take `COC(=O)C(c1ccc(-c2cnc(N)c(-c3nnnn3-c3cccc(F)c3F)c2)cc1)N1CCCC1` (stereo not shown) [I-A-208]: the inhibition constant Ki is ≤ 0.1 µM.

Turning to `CCCN1CCC(n2cc(-c3cnc(N)c(-c4nnnn4-c4cccc(Cl)c4F)c3)cn2)CC1` [I-A-470], the inhibition constant Ki was ≤ 0.1 µM.

Take `Nc1ncc(-c2cnc3[nH]ccc3c2)nc1-c1nncn1-c1cccc(F)c1F` [I-A-13]: the inhibitory constant (Ki) is ≤ 0.1 µM.

Take `Nc1ncc(-c2ccc(CN3CCC[C@H]3CO)cc2)cc1-c1nnnn1-c1cccc(Cl)c1Cl` [I-A-122]: the inhibitory constant (Ki) was ≤ 0.1 µM.

Consider `COCCn1cc(-c2cnc(N)c(-c3nnnn3-c3cccc(F)c3F)c2)cn1` [I-A-367], for which the inhibition constant (Ki) was ≤ 0.1 µM.
